Organism: Rattus norvegicus
Test: DrugMatrix - Regimen: Daily Repeat
Format: toxicity, organism-based, Sprague-Dawley
Set-up: regimen Daily Repeat, gender Male, age 6-8 weeks
Conditions: in vivo, po, route oral GAVAGE, vehicle .5 % CMC
[1] = 0 mg/kg, 72 h, tissue Blood, dose level Control, time 3 day
[2] = 0 mg/kg, 72 h, tissue Plasma, dose level Control, time 3 day
[3] = 0 mg/kg, 120 h, tissue Blood, dose level Control, time 5 day
[4] = 0 mg/kg, 120 h, tissue Plasma, dose level Control, time 5 day
[5] = […], 72 h, tissue Blood, dose 0.77 mg/Kg, dose level Low, time 3 day
[6] = […], 72 h, tissue Blood, dose 7.5 mg/Kg, dose level High, time 3 day

For IVERMECTIN, the BASOPHIL [1] was 0%, the EOSINOPHIL [1] was 0.33% and the “ERYTHROCYTE COUNT” value [1] was 6.03 x10E6/uL. For the same sequence, the HEMATOCRIT [1] was 38.8%, the “LEUKOCYTE COUNT” value [1] was 10.64 x10E3/uL and the LYMPHOCYTE [1] was 83.33%. For the same sequence, the “MEAN CORPUSCULAR HEMOGLOBIN” value [1] was 23.64 pg, the “MEAN CORPUSCULAR HEMOGLOBIN CONCENTRATION” value [1] was 36.74 G/DL and the MONOCYTE [1] was 3.33%. For the same sequence, the NEUTROPHIL [1] was 13%, the “PLATELET COUNT” value [1] was 1264.4 x10E3/uL and the “ALANINE AMINOTRANSFERASE” value [2] was 38.83 u/L. The ALBUMIN [2] was 3.55 G/DL, the “ASPARTATE AMINOTRANSFERASE” value [2] was 66.17 u/L and the “BLOOD UREA NITROGEN” value [2] was 15.67 mg/dL. The CHOLESTEROL [2] was 76.5 mg/dL, the “CREATINE PHOSPHOKINASE” value [2] was 166.83 u/L and the CREATININE [2] was 0.52 mg/dL. For the same sequence, the GLUCOSE [2] was 173.17 mg/dL, the PHOSPHORUS [2] was 11.68 mg/dL and the POTASSIUM [2] was 6.43 MEQ/L. For the same sequence, the SODIUM [2] was 149.5 MEQ/L, the “TOTAL PROTEIN” value [2] was 5.93 G/DL and the BASOPHIL [3] was 0%. The EOSINOPHIL [3] was 0%, the “ERYTHROCYTE COUNT” value [3] was 5.88 x10E6/uL and the HEMATOCRIT [3] was 37.87%. For the same sequence, the HEMOGLOBIN [3] was 14.48 G/DL, the “LEUKOCYTE COUNT” value [3] was 12.43 x10E3/uL and the LYMPHOCYTE [3] was 84.17%. For the same sequence, the “MEAN CORPUSCULAR HEMOGLOBIN” value [3] was 24.65 pg, the “MEAN CORPUSCULAR HEMOGLOBIN CONCENTRATION” value [3] was 38.25 G/DL and the “MEAN CORPUSCULAR VOLUME” value [3] was 64.47 fL. The MONOCYTE [3] was 4.33%, the NEUTROPHIL [3] was 11.5% and the “PLATELET COUNT” value [3] was 1182.33 x10E3/uL. The “ALANINE AMINOTRANSFERASE” value [4] was 38.67 u/L, the ALBUMIN [4] was 3.55 G/DL and the “ALKALINE PHOSPHATASE” value [4] was 342.5 u/L. The “ASPARTATE AMINOTRANSFERASE” value [4] was 63.33 u/L, the “BLOOD UREA NITROGEN” value [4] was 15.5 mg/dL and the CHOLESTEROL [4] was 75.5 mg/dL. For the same sequence, the “CREATINE PHOSPHOKINASE” value [4] was 142.5 u/L, the CREATININE [4] was 0.62 mg/dL and the GLUCOSE [4] was 165.17 mg/dL. The PHOSPHORUS [4] was 10.87 mg/dL, the POTASSIUM [4] was 6.85 MEQ/L and the SODIUM [4] was 150.17 MEQ/L. For the same sequence, the “TOTAL PROTEIN” value [4] was 5.93 G/DL, the BASOPHIL [5] was 0% and the EOSINOPHIL [5] was 0%. The “ERYTHROCYTE COUNT” value [5] was 5.86 x10E6/uL, the HEMATOCRIT [5] was 37.37% and the HEMOGLOBIN [5] was 14 G/DL. For the same sequence, the “LEUKOCYTE COUNT” value [5] was 13.5 x10E3/uL, the LYMPHOCYTE [5] was 81.33% and the “MEAN CORPUSCULAR HEMOGLOBIN” value [5] was 23.97 pg. The “MEAN CORPUSCULAR HEMOGLOBIN CONCENTRATION” value [5] was 37.5 G/DL, the MONOCYTE [5] was 4% and the NEUTROPHIL [5] was 14.67%. For the same sequence, the “PLATELET COUNT” value [5] was 1163.33 x10E3/uL, the BASOPHIL [6] was 0% and the EOSINOPHIL [6] was 0%. For the same sequence, the “ERYTHROCYTE COUNT” value [6] was 6.06 x10E6/uL, the HEMATOCRIT [6] was 37.9% and the HEMOGLOBIN [6] was 13.7 G/DL. For the same sequence, the “LEUKOCYTE COUNT” value [6] was 13 x10E3/uL, the LYMPHOCYTE [6] was 92% and the “MEAN CORPUSCULAR HEMOGLOBIN” value [6] was 22.6 pg.

Source: ChEMBL document CHEMBL3885881, “DrugMatrix”
